Measured values reported in ChEMBL document CHEMBL3991601, “The target landscape of clinical kinase drugs” (Science, 2017).
Calls of active or inactive are those of the source.

How the values were obtained:
[1] = biological target: T1, General transcription and DNA repair factor IIH helicase subunit XPD (Homo sapiens, UniProt P18074); details: read-out: Kd apparent; k-562, colo 205, sk-n-be(2) and mv-4-11
T1 sequence (P18074 whole entry): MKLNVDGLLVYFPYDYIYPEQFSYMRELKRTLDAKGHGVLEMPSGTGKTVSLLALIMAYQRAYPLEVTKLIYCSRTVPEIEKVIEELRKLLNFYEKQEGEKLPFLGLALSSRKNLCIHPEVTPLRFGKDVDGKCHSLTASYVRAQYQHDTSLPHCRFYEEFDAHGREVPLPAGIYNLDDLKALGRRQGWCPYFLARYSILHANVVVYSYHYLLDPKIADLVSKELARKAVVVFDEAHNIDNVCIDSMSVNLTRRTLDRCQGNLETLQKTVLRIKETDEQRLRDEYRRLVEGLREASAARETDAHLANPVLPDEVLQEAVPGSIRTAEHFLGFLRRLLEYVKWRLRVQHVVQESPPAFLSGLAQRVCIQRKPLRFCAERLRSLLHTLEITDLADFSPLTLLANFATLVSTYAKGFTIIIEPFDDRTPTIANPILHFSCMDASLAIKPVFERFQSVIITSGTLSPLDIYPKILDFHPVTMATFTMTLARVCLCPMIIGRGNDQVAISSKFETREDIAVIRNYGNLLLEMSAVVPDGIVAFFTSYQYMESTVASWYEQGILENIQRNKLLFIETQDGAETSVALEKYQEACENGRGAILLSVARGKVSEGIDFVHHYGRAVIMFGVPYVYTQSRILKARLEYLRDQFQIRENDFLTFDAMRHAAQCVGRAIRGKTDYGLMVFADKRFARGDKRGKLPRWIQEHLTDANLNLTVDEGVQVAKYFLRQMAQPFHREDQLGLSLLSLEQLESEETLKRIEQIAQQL

[2] = biological target: T2, Dual specificity mitogen-activated protein kinase kinase 6 (Homo sapiens, UniProt P52564)
T2 sequence (P52564 whole entry): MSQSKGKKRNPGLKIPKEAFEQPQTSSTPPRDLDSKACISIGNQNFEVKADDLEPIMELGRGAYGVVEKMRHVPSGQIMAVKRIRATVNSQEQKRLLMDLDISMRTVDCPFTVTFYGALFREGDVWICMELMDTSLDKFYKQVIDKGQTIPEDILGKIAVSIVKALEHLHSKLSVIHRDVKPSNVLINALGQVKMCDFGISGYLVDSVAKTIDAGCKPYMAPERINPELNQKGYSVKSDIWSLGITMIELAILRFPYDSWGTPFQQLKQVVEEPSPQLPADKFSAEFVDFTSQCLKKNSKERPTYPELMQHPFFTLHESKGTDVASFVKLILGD

[3] = biological target: Glycogen synthase kinase-3 alpha (Homo sapiens, UniProt P49840)
Chain of Glycogen synthase kinase-3 alpha (P49840 whole entry): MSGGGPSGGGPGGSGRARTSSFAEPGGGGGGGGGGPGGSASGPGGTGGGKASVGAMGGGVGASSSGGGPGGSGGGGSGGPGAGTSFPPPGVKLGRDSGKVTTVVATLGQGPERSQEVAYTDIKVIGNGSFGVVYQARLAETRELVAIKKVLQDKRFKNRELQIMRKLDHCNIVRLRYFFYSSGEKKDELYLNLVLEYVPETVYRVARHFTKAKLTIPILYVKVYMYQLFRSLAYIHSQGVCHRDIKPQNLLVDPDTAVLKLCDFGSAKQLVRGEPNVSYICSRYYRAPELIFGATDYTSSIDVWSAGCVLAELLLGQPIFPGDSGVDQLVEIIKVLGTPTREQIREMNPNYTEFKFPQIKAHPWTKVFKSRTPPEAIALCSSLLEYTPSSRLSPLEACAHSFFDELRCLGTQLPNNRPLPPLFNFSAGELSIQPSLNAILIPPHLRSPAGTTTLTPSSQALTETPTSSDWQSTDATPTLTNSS

[4] = biological target: T3, Exosome RNA helicase MTR4 (Homo sapiens, UniProt P42285)
T3 sequence (P42285 whole entry): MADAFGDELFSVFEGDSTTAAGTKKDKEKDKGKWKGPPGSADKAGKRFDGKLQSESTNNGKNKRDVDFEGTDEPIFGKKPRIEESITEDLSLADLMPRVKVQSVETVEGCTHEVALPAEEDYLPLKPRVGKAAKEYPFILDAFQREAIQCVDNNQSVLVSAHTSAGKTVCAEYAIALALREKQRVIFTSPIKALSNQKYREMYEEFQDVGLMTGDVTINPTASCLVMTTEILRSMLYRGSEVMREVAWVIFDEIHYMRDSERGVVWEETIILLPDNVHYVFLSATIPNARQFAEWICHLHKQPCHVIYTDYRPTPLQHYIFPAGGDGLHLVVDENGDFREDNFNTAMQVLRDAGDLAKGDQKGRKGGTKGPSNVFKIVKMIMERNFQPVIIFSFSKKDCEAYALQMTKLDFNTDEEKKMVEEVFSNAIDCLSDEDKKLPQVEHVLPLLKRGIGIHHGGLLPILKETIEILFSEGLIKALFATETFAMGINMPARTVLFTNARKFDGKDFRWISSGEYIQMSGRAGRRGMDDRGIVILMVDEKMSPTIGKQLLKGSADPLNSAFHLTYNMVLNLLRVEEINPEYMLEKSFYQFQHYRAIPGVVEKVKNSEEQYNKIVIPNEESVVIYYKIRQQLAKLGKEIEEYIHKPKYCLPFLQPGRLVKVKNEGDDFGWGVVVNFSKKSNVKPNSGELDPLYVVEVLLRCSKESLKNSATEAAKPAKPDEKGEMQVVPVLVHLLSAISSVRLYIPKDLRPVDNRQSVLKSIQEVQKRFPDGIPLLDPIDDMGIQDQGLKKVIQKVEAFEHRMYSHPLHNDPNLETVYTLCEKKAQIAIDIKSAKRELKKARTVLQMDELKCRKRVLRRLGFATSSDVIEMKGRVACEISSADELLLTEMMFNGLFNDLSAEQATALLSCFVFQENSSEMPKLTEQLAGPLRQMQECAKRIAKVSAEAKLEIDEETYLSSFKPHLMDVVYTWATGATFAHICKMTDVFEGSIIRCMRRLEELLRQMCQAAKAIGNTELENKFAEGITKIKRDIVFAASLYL

[5] = biological target: Ribosomal protein S6 kinase beta-1 (Homo sapiens, UniProt P23443)
Chain of Ribosomal protein S6 kinase beta-1 (P23443 whole entry): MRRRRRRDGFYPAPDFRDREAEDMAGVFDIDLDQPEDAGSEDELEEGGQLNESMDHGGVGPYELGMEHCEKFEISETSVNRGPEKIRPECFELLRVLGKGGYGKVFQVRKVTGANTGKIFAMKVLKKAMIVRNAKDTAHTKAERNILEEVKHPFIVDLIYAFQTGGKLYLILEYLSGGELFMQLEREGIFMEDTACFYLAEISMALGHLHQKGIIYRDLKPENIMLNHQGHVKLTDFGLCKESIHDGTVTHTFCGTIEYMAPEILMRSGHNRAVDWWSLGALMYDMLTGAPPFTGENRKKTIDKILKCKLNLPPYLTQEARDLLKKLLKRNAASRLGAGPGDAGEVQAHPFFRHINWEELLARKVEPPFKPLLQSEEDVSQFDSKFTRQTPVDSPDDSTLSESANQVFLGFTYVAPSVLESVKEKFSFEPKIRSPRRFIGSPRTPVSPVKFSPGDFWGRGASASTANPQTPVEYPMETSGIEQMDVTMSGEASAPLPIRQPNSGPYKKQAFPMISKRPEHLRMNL

[6] = biological target: T4, Interleukin-1 receptor-associated kinase 4 (Homo sapiens, UniProt Q9NWZ3)
T4 sequence (Q9NWZ3 whole entry): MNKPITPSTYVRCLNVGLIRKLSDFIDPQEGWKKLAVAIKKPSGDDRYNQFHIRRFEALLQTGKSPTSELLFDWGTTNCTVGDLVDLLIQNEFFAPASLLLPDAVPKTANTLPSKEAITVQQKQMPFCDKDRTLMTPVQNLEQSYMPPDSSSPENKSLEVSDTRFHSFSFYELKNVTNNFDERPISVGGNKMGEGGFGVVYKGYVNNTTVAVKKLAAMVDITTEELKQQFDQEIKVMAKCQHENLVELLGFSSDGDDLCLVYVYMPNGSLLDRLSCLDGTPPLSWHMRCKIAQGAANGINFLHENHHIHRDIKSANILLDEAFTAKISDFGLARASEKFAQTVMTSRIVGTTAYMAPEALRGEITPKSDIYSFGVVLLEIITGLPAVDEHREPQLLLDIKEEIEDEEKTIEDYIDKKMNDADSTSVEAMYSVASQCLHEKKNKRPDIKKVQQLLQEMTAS
Further: in the data inactive means no Kd found up to 30 µM.

| SMILES | Kd [1] | Kd [2] | Kd [3] | Kd [4] | Kd [5] | Kd [6] |
| --- | --- | --- | --- | --- | --- | --- |
| COc1cc(F)c(F)c(Nc2ccc(I)cc2F)c1NS(=O)(=O)C1(C[C@H](O)CO)CC1 [REFAMETINIB] | > 30 µM (inactive) | > 30 µM (inactive) | > 30 µM (inactive) | > 30 µM (inactive) | > 30 µM (inactive) | > 30 µM (inactive) |
| COCCN1CCN(Cc2ccc(-c3n[nH]c4c3C(=O)c3c(NC(=O)NN5CCOCC5)cccc3-4)cc2)CC1 [RGB-286638] | 0.456 µM (active) | 1.95 µM (active) | 0.007 µM (active) | > 30 µM (inactive) | > 30 µM (inactive) | > 30 µM (inactive) |
| C=CCN(/C=C1/C(=O)O[C@H](COC)[C@@]2(C)C1=C(O)C(=O)C1=C2[C@H](OC(C)=O)C[C@]2(C)C(=O)CC[C@@H]12)CC=C [SONOLISIB] | > 30 µM (inactive) | > 30 µM (inactive) | > 30 µM (inactive) | > 30 µM (inactive) | > 30 µM (inactive) | > 30 µM (inactive) |
| CN1CCN(c2nc(C3=C(c4c[nH]c5ccccc45)C(=O)NC3=O)c3ccccc3n2)CC1 [SOTRASTAURIN] | > 30 µM (inactive) | > 30 µM (inactive) | 1.2 µM (active) | > 30 µM (inactive) | > 30 µM (inactive) | > 30 µM (inactive) |
| Cc1cc(C(=O)Nc2cc(Oc3ccc4nc(NC(=O)C5CC5)cn4n3)ccc2C)n(C)n1 [TAK-593] | > 30 µM (inactive) | > 30 µM (inactive) | > 30 µM (inactive) | > 30 µM (inactive) | > 30 µM (inactive) | > 30 µM (inactive) |
| Cn1c(=O)c(F)c(Nc2ccc(I)cc2F)c2c(=O)n(C[C@@H](O)CO)cnc21 [TAK-733] | > 30 µM (inactive) | > 30 µM (inactive) | > 30 µM (inactive) | > 30 µM (inactive) | > 30 µM (inactive) | > 30 µM (inactive) |
| O[C@H]1CC[C@H](Nc2ncc3nc(Nc4c(F)cc(F)cc4F)n([C@H]4CCOC4)c3n2)CC1 [TANZISERTIB] | > 30 µM (inactive) | > 30 µM (inactive) | > 30 µM (inactive) | > 30 µM (inactive) | > 30 µM (inactive) | > 30 µM (inactive) |
| CNC(=O)c1cccc(-c2ccc3c(N4CCOC[C@@H]4C)nc(N4CCOC[C@@H]4C)nc3n2)c1 [VISTUSERTIB] | > 30 µM (inactive) | > 30 µM (inactive) | > 30 µM (inactive) | > 30 µM (inactive) | > 30 µM (inactive) | > 30 µM (inactive) |
| NC(=O)c1ccc(N(C(N)=O)c2c(F)cccc2F)nc1-c1ccc(F)cc1F [VX-702] | > 30 µM (inactive) | > 30 µM (inactive) | > 30 µM (inactive) | > 30 µM (inactive) | > 30 µM (inactive) | > 30 µM (inactive) |

Next, values leading:

| Kd [1] | Kd [2] | Kd [3] | Kd [4] | Kd [5] | Kd [6] | SMILES |
| --- | --- | --- | --- | --- | --- | --- |
| > 30 µM (inactive) | > 30 µM (inactive) | > 30 µM (inactive) | > 30 µM (inactive) | > 30 µM (inactive) | > 30 µM (inactive) | C=CC(=O)Nc1cccc(Nc2nc(Nc3ccc(N4CCN(C(C)=O)CC4)cc3OC)ncc2C(F)(F)F)c1 [ROCILETINIB] |
| > 30 µM (inactive) | > 30 µM (inactive) | 17.3 µM (active) | > 30 µM (inactive) | > 30 µM (inactive) | > 30 µM (inactive) | O=C(O)c1ccc2c(c1)nc(Nc1cccc(Cl)c1)c1ccncc12 [SILMITASERTIB] |
| > 30 µM (inactive) | > 30 µM (inactive) | > 30 µM (inactive) | > 30 µM (inactive) | > 30 µM (inactive) | > 30 µM (inactive) | CNC(=O)c1cc(COc2nnc(Nc3ccc(Cl)cc3)c3ccoc23)ccn1 [TELATINIB] |
| > 30 µM (inactive) | > 30 µM (inactive) | > 30 µM (inactive) | > 30 µM (inactive) | > 30 µM (inactive) | > 30 µM (inactive) | Cc1cc(-c2cc(OC(=O)c3ccccc3)ccc2Cl)cc2nnc(Nc3ccc(OCCN4CCCC4)cc3)nc12 [TG100-801] |
| > 30 µM (inactive) | > 30 µM (inactive) | > 30 µM (inactive) | > 30 µM (inactive) | > 30 µM (inactive) | > 30 µM (inactive) | C[C@@H]1COC(Nc2ccc3ncnc(Nc4ccc(OCc5nccs5)c(Cl)c4)c3c2)=N1 [VARLITINIB] |
| > 30 µM (inactive) | > 30 µM (inactive) | > 30 µM (inactive) | > 30 µM (inactive) | > 30 µM (inactive) | 34.1 µM (active) | COc1cc2ncnc(Nc3ccc(O)cc3)c2cc1OC [WHI-P131] |
